The NIST ThermoML archive (doi:10.1021/je060348v)
± gives the expanded uncertainty stated by the source.

Conditions: Crystal; visual observation

Normal melting temperature: 94.50 ± 1 °C
Structure (SMILES): OC[C@@H](O)[C@H](O)[C@@H](O)CO [xylitol]
